This note sets out measurements from ChEMBL document CHEMBL1141323, “Iriomoteolides-1b and -1c, 20-membered macrolides from a marine dinoflagellate Amphidinium species” (J Nat Prod, 2007).

Converted amounts (≈) assume the structure as drawn.

One assay concerns Raji (Homo sapiens). As to the kind of experiment: Cytotoxicity against EBV-infected Raji cells. The note with it: human gammaherpesvirus 4, Raji.
A short description of assay [1]: Cytotoxicity against human DG75 cells. The assay is classed as cell-based. The note with it: DG-75.

The IC50 is the point on the concentration scale where inhibition reaches its midpoint. Higher therefore signals weaker potency. With `C=C1C[C@@H]2C/C=C/[C@H](O)[C@H](C)/C(C)=C\C(=O)O[C@H](CCC(C)C(C)O)[C@@H](C)C/C=C/[C@@](C)(O)[C@](O)(C1)O2` (stereo not given in full), the IC50 was 4 ng/mL (≈ 7.68 nM) in the assay on Raji (Homo sapiens) and 2 ng/mL (≈ 3.84 nM) in assay [1].

For `C=C1C[C@@H]2C/C=C/[C@H](O)[C@H](C)/C(C)=C\C(=O)O[C@H](C[C@H](C)[C@H](C)O)[C@@H](C)C/C=C/[C@@](C)(O)[C@](O)(C1)O2`, the IC50 in the assay on Raji (Homo sapiens) worked out at 4 ng/mL (≈ 7.89 nM); in assay [1], 2 ng/mL (≈ 3.95 nM).

Compound `C/C1=C/C(=O)[C@](C)(O)/C=C/C[C@H](C)[C@@H](C[C@H](C)[C@H](C)O)OC(=O)/C=C(/C)[C@@H](C)[C@@H](O)/C=C/C[C@H](O)C1` showed an IC50 in assay [1] of 900 ng/mL (≈ 1780 nM).
